Test results: US20230233470A1, “Formulations” (ViiV Healthcare Company, priority 2020, published 2023)
Values belong to the compound of their own block, whether it stands above or below them.

Key:
[1] = Dissolution (% released), USP <711> and Ph. Eur. 2.9.3; format: physicochemical; conditions: active released from Triumeq Dispersible Bilayer Tablet; Q = 75% at 60 minutes
[2] = Relative bioavailability: Trii Dispersible tablet (dispersed or direct to mouth) vs adult TRIUMEQ tablet; format: in vivo; conditions: for differences in exposure: dispersed or direct to mouth vs. the IR tablet
[3] = Initial relative bioavailability PK study: Triumeq bilayer tablets dispersed in Contrex or purified water vs 4 x 10 mg DTG tablet + Kivexa; format: in vivo; conditions: for differences in exposure across all 5 arms: Treatments A-E; for AUC0-inf (h*ug/mL) Ratio / Cmax (ug/mL) Ratio: DTG; for impact of DTG solubility on DTG levels in plasma / PK: solubility range studied 16-70%
Description: Treatment (TRT) A: Reference 4×10 mg DTG tablet+Kivexa (ABC 600 mg/3TC 300 mg)
(§1) Treatment B-E: Triumeq bilayer tablets—4 tablets (10 mg DTG/ABC 150 mg/3TC 75 mg) dispersed in high mineral content water (Contrex)* or purified water.
(§2) *Contrex water contains a very high level of minerals including calcium, purified water is mineral free.

[4] = Estimate of DTG solubility in the dispersion; format: physicochemical; conditions: for solubility when dispersed: Triumeq bilayer tablets dispersed in water
Description: as §1, §2

[5] = B vs A: bi-layer tablet in Contrex water, immediate, vs 4 × 10 mg tablet + Kivexa
[6] = C vs A: bi-layer tablet in Contrex water, 30 mins, vs control
[7] = D vs A: bi-layer tablet in purified water, immediate, vs control
[8] = E vs A: bi-layer tablet in purified water, 30 mins, vs control

- Dissolution (% released) [1]: 101 (99-104) %
- differences in exposure [2]: No differences in exposure
- differences in exposure across all 5 arms [3]: no differences in exposure
- solubility when dispersed [4]: fully soluble
Compound: Nc1nc(NC2CC2)c2ncn([C@H]3C=C[C@@H](CO)C3)c2n1 [Abacavir, (1S,4R-4-[2-amino-6-cyclopropylamino)-9H-purin-9-yl]-2-cyclopentene-1-methanol hemisulfate]

- Dissolution (% released) [1]: 91 (87-95) %
- exposure, fold ([2]; dosed as dispersion vs adult immediate release tablet): ~1.6 ×
- exposure, fold ([2]; dosed direct to mouth vs adult immediate release tablet): ~1.25 ×
- AUC0-inf (h*ug/mL) Ratio [3, 5]: 1.56
- Cmax (ug/mL) Ratio [3, 5]: 1.59
- AUC0-inf (h*ug/mL) Ratio [3, 6]: 1.53
- Cmax (ug/mL) Ratio [3, 6]: 1.56
- AUC0-inf (h*ug/mL) Ratio [3, 7]: 1.58
- Cmax (ug/mL) Ratio [3, 7]: 1.56
- AUC0-inf (h*ug/mL) Ratio [3, 8]: 1.54
- Cmax (ug/mL) Ratio [3, 8]: 1.58
- exposure compared to the reference, fold ([3]; bilayer tablets dispersed (B-E) vs reference 4×10 mg DTG tablet + Kivexa): ~1.6 ×
- impact of DTG solubility on DTG levels in plasma / PK [3]: no impact on PK
- impact of DTG solubility on DTG levels in plasma / PK ([3]; listed as DTG): does not impact
- Estimate of DTG solubility ([4]; Treatment B: Bi-layer tablet, Contrex water (Ca++) plus flavour and sweetener, dispersion time immediate): Approx. 45% DTG
- Estimate of DTG solubility ([4]; Treatment C: Bi-layer tablet, Contrex water (Ca++) plus flavour and sweetener, dispersion time 30 mins): Approx. 45% DTG
- Estimate of DTG solubility ([4]; Treatment D: Bi-layer tablet, purified water plus flavour and sweetener, dispersion time immediate): Approx. 70% DTG
- Estimate of DTG solubility ([4]; Treatment E: Bi-layer tablet, purified water plus flavour and sweetener, dispersion time 30 mins): Approx. 16% DTG
Compound: C[C@@H]1CCO[C@H]2Cn3cc(C(=O)NCc4ccc(F)cc4F)c(=O)c(O)c3C(=O)N12 [Dolutegravir, (4R,12aS)-N-[(2,4-difluorophenyl)methyl]-7-hydroxy-4-methyl-6,8-dioxo-3,4,12,12a-tetrahydro-2H-pyrido[5,6]pyrazino[2,6-b][1,3]oxazine-9-carboxamide]

- Dissolution (% released) [1]: 99 (92-106) %
- differences in exposure [2]: No differences in exposure
- differences in exposure across all 5 arms [3]: no differences in exposure
- solubility when dispersed [4]: fully soluble
Compound: Nc1ccn([C@@H]2CS[C@H](CO)O2)c(=O)n1 [Lamivudine, 2′,3′-dideoxy-3′-thiacytidine]
